Assays:
[1] = test system: Escherichia coli EC-1: VOGEL, mouse virulent; test: MIC determination (CLSI), strain EC-1; type: cell-based; details: strain EC-1, unit assumed
In short: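 The mouse-virulent VOGEL isolate of E. coli, EC-1, served as test organism. Minimum inhibitory concentration was measured by CLSI dilution methodology (M7-A7; M100-S18 standards).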

[2] = test system: Pseudomonas aeruginosa UI-18: Wild-type (PA-7); test: MIC determination (CLSI), strain PA-7; type: cell-based; details: strain PA-7, unit assumed
In short: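 Strain tested was P. aeruginosa UI-18, a wild-type isolate labelled PA-7. Minimum inhibitory concentrations followed CLSI dilution methodology for aerobically growing bacteria (M7-A7, M100-S18).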

[3] = generated in the same manner as in Table 4

| SMILES | EC-1 (MIC) [1] [µg/mL] | PA-7 (MIC) [2] [µg/mL] | EC-1 (MIC) [1, 3] [µg/mL] | PA-7 (MIC) [2, 3] [µg/mL] |
| --- | --- | --- | --- | --- |
| CC(CCn1ccc(-c2ccc(OCCO)c(Cl)c2)cc1=O)(C(=O)NO)S(C)(=O)=O (stereo not shown) [Example 236, 4-{4-[3-chloro-4-(2-hydroxyethoxy)phenyl]-2-oxopyridin-1(2H)-yl}-N-hydroxy-2-methyl-2-(methylsulfonyl)butanamide] | 32 | 16 | – | – |
| COc1c(F)cc(-c2ccn(CC[C@](C)(C(=O)NO)S(C)(=O)=O)c(=O)c2)cc1F [Example 459] | 2 | 2 | – | – |
| COc1ccc(-c2ccn(CC[C@](C)(C(=O)NO)S(C)(=O)=O)c(=O)c2)c(Cl)c1Cl [Example 452, (2R)-4-[4-(2,3-dichloro-4-methoxyphenyl)-2-oxopyridin-1(2H)-yl]-N-hydroxy-2-methyl-2-(methylsulfonyl)butanamide] | 4 | 2 | – | – |
| COc1cc(-c2ccn(CCC(C)(C(=O)NO)S(C)(=O)=O)c(=O)c2)ccc1OCCCN1CCOCC1 (stereo not shown) [Example 227, N-hydroxy-4-{4-[3-methoxy-4-(3-morpholin-4-ylpropoxy)phenyl]-2-oxopyridin-1(2H)-yl}-2-methyl-2-(methylsulfonyl)butanamide] | 64 | 64 | – | – |
| CCOc1ncc(-c2ccn(CC[C@](C)(C(=O)NO)S(C)(=O)=O)c(=O)c2)cn1 [Example 404, (2R)-4-[4-(2-ethoxypyrimidin-5-yl)-2-oxopyridin-1(2H)-yl]-N-hydroxy-2-methyl-2-(methylsulfonyl)butanamide] | > 64 | > 64 | – | – |
| CC(CCn1ccc(-c2cccc(Cl)c2)cc1=O)(C(=O)NO)S(C)(=O)=O (stereo not shown) [Example 114, 4-[4-(3-chlorophenyl)-2-oxopyridin-1(2H)-yl]-N-hydroxy-2-methyl-2-(methylsulfonyl)butanamide] | – | – | 2 | 4 |
| C[C@@](CCn1ccc(-c2ccc(N3CCC(O)CC3)cc2)cc1=O)(C(=O)NO)S(C)(=O)=O [Example 329, (2R)-N-hydroxy-4-{4-[4-(4-hydroxypiperidin-1-yl)phenyl]-2-oxopyridin-1(2H)-yl}-2-methyl-2-(methylsulfonyl)butanamide] | 1 | 4 | – | – |
| C[C@@](CCn1ccc(-c2ccc(-c3cc(CO)no3)cc2)cc1=O)(C(=O)NO)S(C)(=O)=O [Example 408, (2R)-N-hydroxy-4-[4-{4-[3-(hydroxymethyl)isoxazol-5-yl]phenyl}-2-oxopyridin-1(2H)-yl]-2-methyl-2-(methylsulfonyl)butanamide] | 8 | 8 | – | – |
| C[C@@](CCn1ccc(-c2ccc3cnc(N)cc3c2)cc1=O)(C(=O)NO)S(C)(=O)=O [Example 485] | 64 | 32 | – | – |
| CC(CCn1ccc(-c2ccc(OCCCCO)cc2Cl)cc1=O)(C(=O)NO)S(C)(=O)=O (stereo not shown) [Example 239, 4-{4-[2-chloro-4-(4-hydroxybutoxy)phenyl]-2-oxopyridin-1(2H)-yl}-N-hydroxy-2-methyl-2-(methylsulfonyl)butanamide] | 1 | 4 | – | – |
| CC(CCn1ccc(-c2ccc(C#N)s2)cc1=O)(C(=O)NO)S(C)(=O)=O (stereo not shown) [Example 149, 4-[4-(5-cyano-2-thienyl)-2-oxopyridin-1(2H)-yl]-N-hydroxy-2-methyl-2-(methylsulfonyl)butanamide] | – | – | 16 | 16 |
| Cc1c(-c2ccc(OC(F)F)cc2)ccn(CC[C@](C)(C(=O)NO)S(C)(=O)=O)c1=O [Example 399, (2R)-4-{4-[4-(difluoromethoxy)phenyl]-3-methyl-2-oxopyridin-1(2H)-yl}-N-hydroxy-2-methyl-2-(methylsulfonyl)butanamide] | 0.5 | 1 | – | – |
| CC(CCn1ccc(-c2ccc(Br)c(F)c2)cc1=O)(C(=O)NO)S(C)(=O)=O (stereo not shown) [Example 282, 4-[4-(4-bromo-3-fluorophenyl)-2-oxopyridin-1(2H)-yl]-N-hydroxy-2-methyl-2-(methylsulfonyl)butanamide] | 0.5 | 1 | – | – |
| Cc1cc(-c2ccn(CCC(C)(C(=O)NO)S(C)(=O)=O)c(=O)c2)c(C)cc1OCCO (stereo not shown) [Example 233, N-hydroxy-4-{4-[4-(2-hydroxyethoxy)-2,5-dimethylphenyl]-2-oxopyridin-1(2H)-yl}-2-methyl-2-(methylsulfonyl)butanamide] | > 64 | > 64 | – | – |
| C[C@@](CCn1ccc(-c2ccc3cc(N)ncc3c2)cc1=O)(C(=O)NO)S(C)(=O)=O [Example 473] | 16 | 16 | – | – |
| C[C@@](CCn1ccc(-c2ccc(OCCC[C@@H](O)CO)cc2)cc1=O)(C(=O)NO)S(C)(=O)=O [Example 365, (2R)-4-[4-(4-{[(4R)-4,5-dihydroxypentyl]oxy}phenyl)-2-oxopyridin-1(2H)-yl]-N-hydroxy-2-methyl-2-(methylsulfonyl)butanamide] | 4 | 4 | – | – |

| SMILES | EC-1 (MIC) [1] [µg/mL] | PA-7 (MIC) [2] [µg/mL] | EC-1 (MIC) [1, 3] [µg/mL] | PA-7 (MIC) [2, 3] [µg/mL] |
| --- | --- | --- | --- | --- |
| Cc1cnn(-c2ccc(-c3ccn(CCC(C)(C(=O)NO)S(C)(=O)=O)c(=O)c3)cc2)n1 (stereo not shown) [Example 455] | 0.06 | 1 | – | – |
| C[C@@](CCn1ccc(-c2ccc(OC(F)(F)F)cc2)cc1=O)(C(=O)NO)S(C)(=O)=O [Example 391, (2R)-N-hydroxy-2-methyl-2-(methylsulfonyl)-4-{2-oxo-4-[4-(trifluoromethoxy)phenyl]pyridin-1(2H)-yl}butanamide] | 0.25 | 0.5 | – | – |
| CC(CCn1ccc(-c2ccc(Cl)c(F)c2)cc1=O)(C(=O)NO)S(C)(=O)=O (stereo not shown) [Example 142, 4-[4-(4-chloro-3-fluorophenyl)-2-oxopyridin-1(2H)-yl]-N-hydroxy-2-methyl-2-(methylsulfonyl)butanamide] | – | – | 1 | 1 |
| CC(CCn1ccc(-c2ccc(OCCCn3cncn3)cc2Cl)cc1=O)(C(=O)NO)S(C)(=O)=O (stereo not shown) [Example 291, 4-[4-{2-chloro-4-[3-(1H-1,2,4-triazol-1-yl)propoxy]phenyl}-2-oxopyridin-1(2H)-yl]-N-hydroxy-2-methyl-2-(methylsulfonyl)butanamide] | 16 | 16 | – | – |
| C[C@@](CCn1ccc(-c2ccc(Oc3noc4ccccc34)cc2)cc1=O)(C(=O)NO)S(C)(=O)=O [Example 450, (2R)-4-{4-[4-(1,2-benzisoxazol-3-yloxy)phenyl]-2-oxopyridin-1(2H)-yl}-N-hydroxy-2-methyl-2-(methylsulfonyl)butanamide] | 0.06 | 2 | – | – |
| COc1ccc2ccc(-c3ccn(CCC(C)(C(=O)NO)S(C)(=O)=O)c(=O)c3)cc2c1 (stereo not shown) [Example 288, N-hydroxy-4-[4-(7-methoxy-2-naphthyl)-2-oxopyridin-1(2H)-yl]-2-methyl-2-(methylsulfonyl)butanamide] | 0.125 | 4 | – | – |
| COC(=O)CCc1ccc(-c2ccn(CC[C@](C)(C(=O)NO)S(C)(=O)=O)c(=O)c2)cc1 [Example 478] | 2 | 1 | – | – |
| CC(=O)c1ccc(-c2ccn(CCC(C)(C(=O)NO)S(C)(=O)=O)c(=O)c2)cc1O (stereo not shown) [Example 99, 4-[4-(4-acetyl-3-hydroxyphenyl)-2-oxopyridin-1(2H)-yl]-N-hydroxy-2-methyl-2-(methylsulfonyl)butanamide] | – | – | 8 | 16 |
| CC(CCn1ccc(-c2cncc3ccccc23)cc1=O)(C(=O)NO)S(C)(=O)=O (stereo not shown) [Example 109, N-hydroxy-4-(4-isoquinolin-4-yl-2-oxopyridin-1(2H)-yl)-2-methyl-2-(methylsulfonyl)butanamide] | – | – | > 64 | > 64 |
| CCOc1ccc(Cl)cc1-c1ccn(CCC(C)(C(=O)NO)S(C)(=O)=O)c(=O)c1 (stereo not shown) [Example 105, 4-[4-(5-chloro-2-ethoxyphenyl)-2-oxopyridin-1(2H)-yl]-N-hydroxy-2-methyl-2-(methylsulfonyl)butanamide] | – | – | > 64 | > 64 |
| C[C@@](CCn1ccc(-c2ccc(-c3ncc[nH]3)cc2)cc1=O)(C(=O)NO)S(C)(=O)=O [Example 367, (2R)-N-hydroxy-4-{4-[4-(1H-imidazol-2-yl)phenyl]-2-oxopyridin-1(2H)-yl}-2-methyl-2-(methylsulfonyl)butanamide] | 8 | > 64 | – | – |
| Cc1c(-c2cccc(Cl)c2F)ccn(CC[C@](C)(C(=O)NO)S(C)(=O)=O)c1=O [Example 413, (2R)-4-[4-(3-chloro-2-fluorophenyl)-3-methyl-2-oxopyridin-1(2H)-yl]-N-hydroxy-2-methyl-2-(methylsulfonyl)butanamide] | 2 | 2 | – | – |
| Cc1cc(-c2ccc(-c3ccn(CC[C@](C)(C(=O)NO)S(C)(=O)=O)c(=O)c3)cc2)no1 [Example 370, (2R)-N-hydroxy-2-methyl-4-{4-[4-(5-methylisoxazol-3-yl)phenyl]-2-oxopyridin-1(2H)-yl}-2-(methylsulfonyl)butanamide] | 0.125 | 0.5 | – | – |
| C[C@@](CCn1ccc(-c2ccc(-c3cscn3)cc2)cc1=O)(C(=O)NO)S(C)(=O)=O [Example 405, (2R)-N-hydroxy-2-methyl-2-(methylsulfonyl)-4-{2-oxo-4-[4-(1,3-thiazol-4-yl)phenyl]pyridin-1(2H)-yl}butanamide] | 0.125 | 1 | – | – |
| CC(CCn1ccc(-c2ccc(OCCCN3CCOCC3)c(F)c2)cc1=O)(C(=O)NO)S(C)(=O)=O (stereo not shown) [Example 223, 4-{4-[3-fluoro-4-(3-morpholin-4-ylpropoxy)phenyl]-2-oxopyridin-1(2H)-yl}-N-hydroxy-2-methyl-2-(methylsulfonyl)butanamide] | 4 | 8 | – | – |
| COc1cc(-c2ccn(CCC(C)(C(=O)NO)S(C)(=O)=O)c(=O)c2)cc(OC)c1OC (stereo not shown) [Example 212, N-hydroxy-2-methyl-2-(methylsulfonyl)-4-[2-oxo-4-(3,4,5-trimethoxyphenyl)pyridin-1(2H)-yl]butanamide] | > 64 | > 64 | – | – |

Reference: patent US8846933B2, “N-link hydroxamic acid derivatives useful as antibacterial agents” (Pfizer Inc., priority 2009, dated 2014)
